Patent US9012200B2, “Composition of bacterial strains, bioremediation mixture and use of this composition for the removal of contaminants from the soil and the method for purifying the soil contaminants” (priority 2012, dated 2015)
In brackets after ≈: the same amount, converted by molar mass. Like-named read-outs stand apart in the source and are kept apart here.

Experiments:
Assay type in all cases: cell-based
[1] = tested on: Stenotrophomonas sp. strain 2L; assay: Antibiotic MIC by E-test; settings: 24 h; for MIC: Stenotrophomonas, read-out: MIC threshold values for a given antibiotic
Method: (§1) A disc diffusion method was performed to determine the susceptibility of bacteria to the selected antibiotics. We used discs soaked with the antibiotic of a well-defined concentration (BioMerioux) (Table 2) and the minimal inhibitory concentration test was carried out, using E-tests (Oxoid) (Table 3).
(§2) In the next stage of the research, MIC values of a given antibiotic for the investigated strains were determined, meaning the lowest concentration of the drug, expressed in mg/L, determined in vitro, which inhibits the growth of bacteria at a defined inoculum density, within a given time (Hryniewicz et at, 2001). These studies allow for the closer determination of the degree of susceptibility of bacteria to the applied antibiotics.
(§3) A bacterial suspension was evenly distributed on dishes with ready-to-use MHA medium (Oxoid), and then plastic testing strips (E-tests) soaked with an antibiotic with a concentration gradient were placed thereon. The dishes were incubated at 25-30° C. for 24 h, and the test results were read after this time.
(§4) The intersection of elliptical zone of inhibition, which appeared around the test strip, with the value indicator on the gradient scale of the strip, determined the lowest concentration of antibiotic, inhibiting growth of the microorganism (MIC). Similarly as in the disc diffusion method, the obtained results were compared with the guidelines contained in the relevant standards.

[2] = tested on: Stenotrophomonas sp. strain 5L; assay: Antibiotic MIC by E-test; settings: 24 h; for MIC: Stenotrophomonas, read-out: MIC threshold values for a given antibiotic
Method: as §1, §2, §3, §4

[3] = tested on: Arthrobacter sp. strain 1N; assay: Antibiotic MIC by E-test; settings: 24 h; for MIC: Arthrobacter, read-out: MIC threshold values for a given antibiotic
Method: as §1, §2, §3, §4

[4] = tested on: Achromobacter sp. strain 4P; assay: Antibiotic MIC by E-test; settings: 24 h; for MIC: Achromobacter, read-out: MIC threshold values for a given antibiotic
Method: as §1, §2, §3, §4

[5] = tested on: Pseudomonas sp. strain 4G; assay: Antibiotic MIC by E-test; settings: 24 h; for MIC: Pseudomonas, read-out: MIC threshold values for a given antibiotic
Method: as §1, §2, §3, §4

[6] = tested on: Pseudomonas sp. strain 3G; assay: Antibiotic MIC by E-test; settings: 24 h; for MIC: Pseudomonas, read-out: MIC threshold values for a given antibiotic
Method: as §1, §2, §3, §4

[7] = tested on: Brevundimonas sp. strain 2N; assay: Antibiotic MIC by E-test; settings: 24 h; for MIC: Brevundimonas, read-out: MIC threshold values for a given antibiotic
Method: as §1, §2, §3, §4

[8] = tested on: Stenotrophomonas sp. strain 6L; assay: Antibiotic MIC by E-test; settings: 24 h; for MIC: Stenotrophomonas, read-out: MIC threshold values for a given antibiotic
Method: as §1, §2, §3, §4

[9] = tested on: Stenotrophomonas sp. strain 3N; assay: Antibiotic MIC by E-test; settings: 24 h; for MIC: Stenotrophomonas, read-out: MIC threshold values for a given antibiotic
Method: as §1, §2, §3, §4

[10] = tested on: Brevundimonas sp. strain 6N; assay: Antibiotic MIC by E-test; settings: 24 h; for MIC: Brevundimonas, read-out: MIC threshold values for a given antibiotic
Method: as §1, §2, §3, §4

[11] = tested on: Brevundimonas sp. strain 5N; assay: Antibiotic MIC by E-test; settings: 24 h; for MIC: Brevundimonas, read-out: MIC threshold values for a given antibiotic
Method: as §1, §2, §3, §4

[12] = tested on: Stenotrophomonas sp. strain 2L; assay: Disc diffusion antibiotic susceptibility
Method: as §1
(§5) A McFarland's 0.5 inoculum was prepared from each strain's culture, using a densitometer (EMO). Then, using sterile cotton swabs, the suspension of bacterial cells was spread on dishes with ready-to-use MHA medium (Oxoid), and after 15 minutes, discs soaked with antibiotics at defined concentrations were placed on them.
(§6) The dishes were incubated at 25-30° C., and the results were read after 24 and 48 hours. The measure of susceptibility of a tested strain to a given antibiotic was the size of the inhibition zone which formed around the disc soaked with the antibiotic. The results read (sizes of zones measured in mm) were compared with the data contained in the European Committee on Antimicrobial Susceptibility Testing (EUCAST) standards from 2010 (Table 4).
(§7) The measure of susceptibility of the tested bacterial strain to a given antibiotic was the size of the inhibition zone which formed around the disc (Table 5).

[13] = tested on: Stenotrophomonas sp. strain 5L; assay: Disc diffusion antibiotic susceptibility; settings: 24 h
Method: as §1, §5, §6, §7

[14] = tested on: Arthrobacter sp. strain 1N; assay: Disc diffusion antibiotic susceptibility
Method: as §1, §5, §6, §7

[15] = tested on: Achromobacter sp. strain 4P; assay: Disc diffusion antibiotic susceptibility
Method: as §1, §5, §6, §7

[16] = tested on: Pseudomonas sp. strain 4G; assay: Disc diffusion antibiotic susceptibility; settings: 24 h
Method: as §1, §5, §6, §7

[17] = tested on: Pseudomonas sp. strain 3G; assay: Disc diffusion antibiotic susceptibility
Method: as §1, §5, §6, §7

[18] = tested on: Brevundimonas sp. strain 2N; assay: Disc diffusion antibiotic susceptibility
Method: as §1, §5, §6, §7

[19] = tested on: Stenotrophomonas sp. strain 6L; assay: Disc diffusion antibiotic susceptibility; settings: 24 h
Method: as §1, §5, §6, §7

[20] = tested on: Stenotrophomonas sp. strain 3N; assay: Disc diffusion antibiotic susceptibility
Method: as §1, §5, §6, §7

[21] = tested on: Brevundimonas sp. strain 6N; assay: Disc diffusion antibiotic susceptibility
Method: as §1, §5, §6, §7

[22] = tested on: Brevundimonas sp. strain 5N; assay: Disc diffusion antibiotic susceptibility; settings: 24 h
Method: as §1, §5, §6, §7

Compound | Size of the growth inhibition zone ([12]; 24 h) | Size of the growth inhibition zone [13] | Size of the growth inhibition zone ([14]; 24 h) | Size of the growth inhibition zone ([15]; 24 h) | Size of the growth inhibition zone [16] | Size of the growth inhibition zone ([17]; 24 h) | Size of the growth inhibition zone ([18]; 24 h) | Size of the growth inhibition zone [19] | Size of the growth inhibition zone ([20]; 24 h) | Size of the growth inhibition zone ([21]; 24 h) | Size of the growth inhibition zone [22] | MIC [1] | MIC [2] | MIC ([3]; strain 1N, E-test) | MIC [5] | MIC [6] | MIC [7] | MIC [8] | MIC [9] | MIC [10] | further results
gentamicin [CN] | 24 mm | 22 mm | 23 mm | 22 mm | 0 mm | 22 mm | 24 mm | 0 mm | 25 mm | 23 mm | 24 mm |  |  |  |  |  |  |  |  |  | MIC threshold values for a given antibiotic [1]: 4 µg/mL; MIC threshold values for a given antibiotic [2]: 8 µg/mL; MIC threshold values for a given antibiotic ([3]; strain 1N, E-test): 8 µg/mL; MIC threshold values for a given antibiotic ([4]; strain 4P, E-test): 4 µg/mL; MIC threshold values for a given antibiotic [5]: ≧256 μg/ml; MIC threshold values for a given antibiotic [6]: ≧256 μg/ml; MIC threshold values for a given antibiotic [7]: 8 µg/mL; MIC threshold values for a given antibiotic [8]: 256 µg/mL; MIC threshold values for a given antibiotic [9]: 8 µg/mL; MIC threshold values for a given antibiotic [10]: 8 µg/mL; MIC threshold values for a given antibiotic [11]: 4 µg/mL; Size of the growth inhibition zone ([12]; 48 h): 19 mm; Size of the growth inhibition zone ([14]; 48 h): 18 mm; Size of the growth inhibition zone ([15]; 48 h): 21 mm; Size of the growth inhibition zone ([17]; 48 h): 20 mm; Size of the growth inhibition zone ([18]; 48 h): 21 mm; Size of the growth inhibition zone ([20]; 48 h): 0 mm; Size of the growth inhibition zone ([21]; 48 h): 20 mm
CC[C@H]1OC(=O)[C@H](C)[C@@H](O[C@H]2C[C@@](C)(OC)[C@@H](O)[C@H](C)O2)[C@H](C)[C@@H](O[C@@H]2O[C@H](C)C[C@H](N(C)C)[C@H]2O)[C@](C)(O)C[C@@H](C)C(=O)[C@H](C)[C@@H](O)[C@]1(C)O [E, erythromycin] | 0 mm | 0 mm | 0 mm | 0 mm | 0 mm | 0 mm | 0 mm | 0 mm | 0 mm | 0 mm | 0 mm | ≥ 256 µg/mL | ≥ 256 µg/mL | 256 µg/mL (≈ 349 µM) | ≥ 256 µg/mL | ≥ 256 µg/mL | 128 µg/mL (≈ 174 µM) | ≥ 256 µg/mL | ≥ 256 µg/mL | 256 µg/mL (≈ 349 µM) | MIC ([4]; strain 4P, E-test): 256 µg/mL (≈ 349 µM); MIC [11]: 256 µg/mL (≈ 349 µM)
CCn1cc(C(=O)O)c(=O)c2cc(F)c(N3CCNCC3)cc21 [NX, norfloxacin] |  |  |  |  |  |  |  |  |  |  |  | 128 µg/mL (≈ 401 µM) | 32 µg/mL (≈ 100 µM) | 96 µg/mL (≈ 301 µM) | > 256 µg/mL | 192 µg/mL (≈ 601 µM) | 256 µg/mL (≈ 802 µM) | 128 µg/mL (≈ 401 µM) | 128 µg/mL (≈ 401 µM) | 96 µg/mL (≈ 301 µM) | MIC ([4]; strain 4P, E-test): 256 µg/mL (≈ 802 µM); MIC [11]: 128 µg/mL (≈ 401 µM)
CO/N=C(\C(=O)N[C@@H]1C(=O)N2C(C(=O)O)=C(CSc3nc(=O)c(=O)[nH]n3C)CS[C@H]12)c1csc(N)n1 [TX, ceftriaxone] |  |  |  |  |  |  |  |  |  |  |  | ≥ 256 µg/mL | ≥ 256 µg/mL | ≥ 256 µg/mL | ≥ 256 µg/mL | ≥ 256 µg/mL | ≥ 256 µg/mL | ≥ 256 µg/mL | ≥ 256 µg/mL | ≥ 256 µg/mL | MIC [4]: 16 µg/mL (≈ 28.9 µM); MIC [11]: ≥ 256 µg/mL
CC1(C)S[C@@H]2[C@H](NC(=O)Cc3ccccc3)C(=O)N2[C@H]1C(=O)O [P, penicillin G] | 0 mm | 0 mm | 0 mm | 0 mm | 0 mm | 0 mm | 0 mm | 0 mm | 0 mm | 0 mm | 0 mm | ≥ 32 µg/mL | ≥ 32 µg/mL | ≥ 32 µg/mL | ≥ 32 µg/mL | ≥ 32 µg/mL | ≥ 32 µg/mL | ≥ 32 µg/mL | ≥ 32 µg/mL | ≥ 32 µg/mL | MIC ([4]; strain 4P, E-test): ≥ 32 µg/mL; MIC [11]: ≥ 32 µg/mL
CN[C@H](CC(C)C)C(=O)N[C@H]1C(=O)N[C@@H](CC(N)=O)C(=O)N[C@H]2C(=O)N[C@H]3C(=O)N[C@H](C(=O)N[C@H](C(=O)O)c4cc(O)cc(O)c4-c4cc3ccc4O)[C@H](O)c3ccc(c(Cl)c3)Oc3cc2cc(c3O[C@@H]2O[C@H](CO)[C@@H](O)[C@H](O)[C@H]2O[C@H]2C[C@](C)(N)[C@H](O)[C@H](C)O2)Oc2ccc(cc2Cl)[C@H]1O [VA, vancomycin] | 0 mm | 0 mm | 0 mm | 0 mm | 0 mm | 0 mm | 0 mm | 0 mm | 0 mm | 0 mm | 0 mm |  |  |  |  |  |  |  |  |  | MIC [3]: ≥ 256 µg/mL
